In patent publication US8026257B2 (Bristol-Myers Squibb Company, priority 2007, dated 2011) one finds IC50 data, which are given here for 19 compounds.

For test [1], the target named is T1, NK-1 (Homo sapiens, UniProt P25103).
T1 construct: 30 ul/well of a 2×U373 membrane preparation
Briefly: NK1 radioligand binding assay ([125I]Substance P, U373 membranes). As to conditions: U373 cell membranes, 200 pM [125I]Substance P, 1 hour at room temperature. Here is the method: (§1) NK-1 Binding assay. Crude membrane suspensions were prepared for the NK1 and SERT radioligand binding assays from U373 cells or recombinant HEK-293 cells expressing hSERT, respectively. Cells were harvested from T-175 flasks as follows. The medium is removed from the flasks and the cells rinsed with HBSS without Ca and without Mg. The cells are then incubated for 5-10 minutes in 10 mM Tris-Cl, pH 7.5, 5 mM EDTA before the cells are lifted with a combination of pipetting and scraping, as needed. To prepare membranes, the cell suspension is collected into centrifuge bottles and homogenized for 30 seconds with a Polytron homogenizer. The suspension is centrifuged for 30 min@32,000×g, 4° C., then the supernatant is decanted and the pellet resuspended and homogenized in 50 mM Tris-Cl, pH 7.5, 1 mM EDTA for 10 seconds. The suspension is then centrifuged again for 30 min@32,000×g, 4° C. The supernatant is decanted and the pellet resuspended in 50 mM Tris-Cl, pH 7.5, 1 mM EDTA and briefly homogenized. A Bradford assay (Bio-rad) is performed and the membrane preparation diluted to 2 mg/ml with 50 mM Tris-Cl, pH 7.5, 1 mM EDTA. Aliquots are prepared, and then frozen and stored at −80° C.
NK1 radioligand binding assay. Compounds are dissolved in 100% DMSO at a concentration 100× the desired highest assay concentration, serially diluted 1:3 in 100% DMSO, and 0.6 ul/well of each solution is dispensed to a Nunc polypropylene, round bottom, 384 well plate. 100% inhibition is defined with 0.6 ul/well of 1 mM L-733,060 (Sigma L-137) dissolved in DMSO. 30 ul/well of a 2×U373 membrane preparation (267 ug/ml in 100 mM Tris-Cl, pH 7.5, 6 mM MgCl2, 0.2% (v/v) Sigma mammalian protease inhibitor cocktail (Sigma P-8340), and 4 ug/ml chymostatin, Sigma C-7268) and 30 ul/well of a 2× radioligand solution (400 pM [^125I]Substance P (Perkin ElmerNEX-190) in 1% (w/v) BSA (Sigma A-2153), 0.1 mg/ml bacitracin, Sigma B-0125) are added to the well and the reaction incubated for 1 hour at room temperature. The contents of the assay plate are then transferred to a Millipore MultiscreenHTS GF/B filter plate which has been pretreated with 0.5% PEI for at least one hour. The plate is vacuum filtered and washed with 7 washes of 100 ul/well of 20 mM Tris-Cl, pH 7.5, 0.5% (w/v) BSA chilled to 4° C. The filtration and washing is completed in less than 90 s. The plates are air-dried overnight, 12 ul/well of MicroScint scintillation fluid added, and the plates counted in a Trilux.
(§2) Data analysis. The raw data are normalized to percent inhibition using control wells defining 0% (DMSO only) and 100% (selective inhibitor) inhibition which are run on each plate. Each plate is run in triplicate, and the concentration response curve thus generated is fit using the four-parameter dose response equation, Y=Bottom+(Top-Bottom)/(1+10^((LogIC50−X)*HillSlope)) in order to determine the IC50 value for each compound. The radioligand concentration chosen for each assay corresponds to the Kd concentration determined through saturation binding analysis for each assay.

In test [2] the target is hSERT (Homo sapiens, UniProt P31645). The experiment in a line: SERT radioligand binding assay ([125I]RTI-55, HEK-hSERT membranes). As to conditions: HEK-293 hSERT membranes, 260 pM [125I]RTI-55, 1 hour at room temperature; read-out: SERT IC50. Here is the method: as §1
SERT radioligand binding assay. Compounds are dissolved in 100% DMSO at a concentration 100× the desired highest assay concentration, serially diluted 1:3 in 100% DMSO, and 0.4 ul/well of each solution is dispensed to a Nunc polypropylene, round bottom, 384 well plate. 100% inhibition is defined with 0.4 ul/well of 1 mM fluoxetine (Sigma F-132) dissolved in DMSO. 20 ul/well of a 2× HEK-hSERT membrane preparation (15 ug/ml in 50 mM Tris-Cl, pH 7.5, 120 mM NaCl, 5mM KCl) and 20 ul/well of a 2× radioligand solution (520 pM [^125I]RTI-55 (Perkin-Elmer NEX-272) in 50 mM Tris-Cl, pH 7.5, 120 mM NaCl, 5mM KCl) are added to each well and the reaction incubated for 1 hour at room temperature. The contents of the assay plate are then transferred to a Millipore MultiscreenHTs GF/B filter plate which has been pretreated with 0.5% PEI for at least one hour. The plate is vacuum filtered and washed with 7 washes of 100 ul/well of 50 mM Tris-Cl, pH 7.5, 120 mM NaCl, 5 mM KCl chilled to 4° C. The filtration and washing is completed in less than 90 s. The plates are air-dried overnight, 12 ul/well of MicroScint scintillation fluid added, and the plates counted in a Trilux.
as §2

pIC50: −log10 of the molar value. Counter-ions that a name gives are not always drawn.

Broadly, the pIC50 is the IC50 on a negative log10 scale, so that one unit is a factor of ten.

hSERT, sequence (P31645 whole entry): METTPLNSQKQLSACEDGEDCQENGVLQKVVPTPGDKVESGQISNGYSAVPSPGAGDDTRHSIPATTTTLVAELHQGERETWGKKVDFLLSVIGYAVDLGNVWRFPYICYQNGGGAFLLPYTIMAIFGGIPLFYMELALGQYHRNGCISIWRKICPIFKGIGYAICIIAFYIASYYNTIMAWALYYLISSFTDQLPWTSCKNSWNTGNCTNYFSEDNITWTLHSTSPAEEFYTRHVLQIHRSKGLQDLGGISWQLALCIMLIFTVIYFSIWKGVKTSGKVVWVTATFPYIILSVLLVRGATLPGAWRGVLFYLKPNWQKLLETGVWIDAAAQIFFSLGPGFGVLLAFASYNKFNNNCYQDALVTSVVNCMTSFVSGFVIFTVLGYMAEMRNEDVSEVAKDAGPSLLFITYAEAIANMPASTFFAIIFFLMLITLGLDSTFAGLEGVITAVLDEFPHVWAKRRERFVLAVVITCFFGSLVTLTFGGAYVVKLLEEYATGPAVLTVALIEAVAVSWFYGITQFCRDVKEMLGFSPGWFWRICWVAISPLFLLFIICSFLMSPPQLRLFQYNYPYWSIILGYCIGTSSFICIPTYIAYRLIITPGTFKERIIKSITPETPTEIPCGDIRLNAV
T1 sequence (P25103 whole entry): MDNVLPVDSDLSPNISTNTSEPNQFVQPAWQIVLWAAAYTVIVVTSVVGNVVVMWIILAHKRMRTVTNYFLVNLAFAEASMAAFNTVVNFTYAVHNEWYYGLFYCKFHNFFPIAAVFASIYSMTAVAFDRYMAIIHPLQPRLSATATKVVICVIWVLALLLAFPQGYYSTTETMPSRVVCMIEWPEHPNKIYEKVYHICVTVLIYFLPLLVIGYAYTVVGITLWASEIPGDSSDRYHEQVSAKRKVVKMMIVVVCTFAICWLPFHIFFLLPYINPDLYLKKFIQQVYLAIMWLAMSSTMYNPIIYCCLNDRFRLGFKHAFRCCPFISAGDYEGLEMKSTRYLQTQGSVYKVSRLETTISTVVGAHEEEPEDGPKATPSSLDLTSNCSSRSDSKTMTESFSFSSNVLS

Turning to `Cc1cc(C(C)OCC2(c3ccc(F)cc3)CCN(C)CC2)c2c(cnn2CC(F)F)c1` (racemic) [Example 60, (±)-1-(2,2-Difluoroethyl)-7-(1-((4-(4-fluorophenyl)-1-methylpiperidin-4-yl)methoxy)ethyl)-5-methyl-1H-indazole], the pIC50 in test [1] and in test [2] was 7.00 to 11.00 each time.
With `Cc1cc(C(C)OCC2(c3ccc(F)cc3)CCN(C)CC2)c2nn(CC(F)F)cc2c1` (racemic) [Example 61, (±)-2-(2,2-Difluoroethyl)-7-(1-((4-(4-fluorophenyl)-1-methylpiperidin-4-yl)methoxy)ethyl)-5-methyl-2H-indazole], the pIC50 in test [1] and in test [2] was 7.00 to 11.00 throughout.
For `Cc1cc(C(C)OCC2(c3ccc(F)cc3)CCN(C)CC2)c2c(cnn2CC2CC2)c1` (racemic) [Example 62, (±)-1-(Cyclopropylmethyl)-7-(1-((4-(4-fluorophenyl)-1-methylpiperidin-4-yl)methoxy)ethyl)-5-methyl-1H-indazole], the pIC50 in test [1] and in test [2] was 7.00 to 11.00 each time.
Regarding `Cc1cc(C(C)OCC2(c3ccc(F)cc3)CCN(C)CC2)c2nn(CC3CC3)cc2c1` (racemic) [Example 63, (±)-2-(Cyclopropylmethyl)-7-(1-((4-(4-fluorophenyl)-1-methylpiperidin-4-yl)methoxy)ethyl)-5-methyl-2H-indazole], the pIC50 in test [1] and in test [2] was 7.00 to 11.00 throughout.
Turning to `Cc1cc(C(C)OCC2(c3ccc(F)cc3)CCN(C)CC2)c2c(cnn2C2CC2)c1` (racemic) [Example 64, (±)-1-Cyclopropyl-7-(1-((4-(4-fluorophenyl)-1-methylpiperidin-4-yl)methoxy)ethyl)-5-methyl-1H-indazole], the pIC50 in test [1] and in test [2] was 7.00 to 11.00 each time.
Regarding `CC(OCC1(c2ccccc2)CCN(C)CC1)c1cc(C(F)(F)F)cc2cc[nH]c12` (racemic) [Example 70, (±)-7-(1-((1-Methyl-4-phenylpiperidin-4-yl)methoxy)ethyl)-5-(trifluoromethyl)-1H-indole], the pIC50 in test [1] is 7.00 to 11.00; in test [2] it was 6.52 to 7.00.
Regarding `CC(OCC1(c2ccccc2)CCN(C)CC1)c1cc(C(F)(F)F)cc2ccn(C)c12` (racemic) [Example 71, (±)-1-Methyl-7-(1-((1-methyl-4-phenylpiperidin-4-yl)methoxy)ethyl)-5-(trifluoromethyl)-1H-indole], the pIC50 in test [1] and in test [2] was 7.00 to 11.00 throughout.
As for `CC(OCC1(c2ccc(F)cc2)CCN(C)CC1)c1cc(C(F)(F)F)cc2cc[nH]c12` (racemic) [Example 72, (±)-7-(1-((4-(4-Fluorophenyl)-1-methylpiperidin-4-yl)methoxy)ethyl)-5-(trifluoromethyl)-1H-indole], the pIC50 in test [1] and in test [2] was 7.00 to 11.00 each time.
For `CC(OCC1(c2ccc(F)cc2)CCN(C)CC1)c1cc(C(F)(F)F)cc2ccn(C)c12` (racemic) [Example 73, (±)-7-(1-((4-(4-Fluorophenyl)-1-methylpiperidin-4-yl)methoxy)ethyl)-1-methyl-5-(trifluoromethyl)-1H-indole], the pIC50 in test [1] and in test [2] was 7.00 to 11.00 throughout.
As to `CC(OCC1(c2ccc(F)cc2)CCN(C)CC1)c1cc(C(F)(F)F)cc2c1NC(=O)C2` (racemic) [Example 123, (±)-7-(1-((4-(4-fluorophenyl)-1-methylpiperidin-4-yl)methoxy)ethyl)-5-(trifluoromethyl)indolin-2-one], the pIC50 in test [1] and in test [2] was 7.00 to 11.00 in each case.
`CC(OCC1(c2ccc(F)cc2)CCN(C)CC1)c1cc(Cl)cc2c(C#N)c[nH]c12` (racemic) [Example 124, (±)-5-chloro-7-(1-((4-(4-fluorophenyl)-1-methylpiperidin-4-yl)methoxy)ethyl)-1H-indole-3-carbonitrile]: the pIC50 in test [1] and in test [2] was 7.00 to 11.00 in each case.
Turning to `Cc1c[nH]c2c(C(C)OCC3(c4ccc(F)cc4)CCN(C)CC3)cc(C(F)(F)F)cc12` (racemic) [Example 126, (±)-7-(1-((4-(4-fluorophenyl)-1-methylpiperidin-4-yl)methoxy)ethyl)-3-methyl-5-(trifluoromethyl)-1H-indole], the pIC50 in test [1] and in test [2] was 7.00 to 11.00 each time.
Consider `CC(OCC1(c2ccc(F)cc2)CCN(C)CC1)c1cc(C(F)(F)F)cc2c1ccn2C` (racemic) [Example 127, (±)-4-(1-((4-(4-fluorophenyl)-1-methylpiperidin-4-yl)methoxy)ethyl)-1-methyl-6-(trifluoromethyl)-1H-indole], for which the pIC50 in test [1] and in test [2] was 7.00 to 11.00 in each case.
Turning to `CC(OCC1(c2ccc(F)cc2)CCN(C)CC1)c1cc(C(F)(F)F)cc2[nH]ccc12` (racemic) [Example 128, (±)-4-(1-((4-(4-fluorophenyl)-1-methylpiperidin-4-yl)methoxy)ethyl)-6-(trifluoromethyl)-1H-indole], the pIC50 in test [1] and in test [2] was 7.00 to 11.00 in each case.
As to `CC(OCC1(c2ccc(F)cc2)CCNCC1)c1cc(C(F)(F)F)cc2c1CC(=O)N2` (racemic) [Example 129, (±)-4-(1-((4-(4-fluorophenyl)piperidin-4-yl)methoxy)ethyl)-6-(trifluoromethyl)indolin-2-one, TFA], the pIC50 in test [1] is 6.52 to 7.00; in test [2], 7.00 to 11.00.
The like results for `CC(OCC1(c2ccc(F)cc2)CCNCC1)c1cc(C(F)(F)F)cc2cn[nH]c12` (single isomer, unassigned) [Example 22, 7-(1-((4-(4-Fluorophenyl)piperidin-4-yl)methoxy)ethyl)-5-(trifluoromethyl)-1H-indazole] were, in that order, 6.52 to 7.00 and 7.00 to 11.00.
The like results for `CC(OCC1(c2ccc(F)cc2)CCN(C)CC1)c1cc(C(F)(F)F)cc2cn[nH]c12` (single isomer, unassigned) [Example 23, 7-(1-((4-(4-Fluorophenyl)-1-methylpiperidin-4-yl)methoxy)ethyl)-5-(trifluoromethyl)-1H-indazole] were, in that order, 6.52 to 7.00 and 7.00 to 11.00.
For `CC(OCC1(c2ccc(F)cc2)CCNCC1)c1cc(C(F)(F)F)cc2cn[nH]c12` (single isomer, unassigned) [Example 24, 7-(1-((4-(4-Fluorophenyl)piperidin-4-yl)methoxy)ethyl)-5-(trifluoromethyl)-1H-indazole], the pIC50 in test [1] and in test [2] was 7.00 to 11.00 throughout.
On to `CC(OCC1(c2ccc(F)cc2)CCN(C)CC1)c1cc(C(F)(F)F)cc2cn[nH]c12` (single isomer, unassigned) [Example 25, 7-(1-((4-(4-Fluorophenyl)-1-methylpiperidin-4-yl)methoxy)ethyl)-5-(trifluoromethyl)-1H-indazole], for which the negative-log IC50 (pIC50) in test [1] and in test [2] was 7.00 to 11.00 throughout.
